The test system of data set [1] is epidermoid carcinoma of the nasopharynx (KB) cell line. Description: Activity against HTCL replication, KB. The class given is cell-based, human. Particulars: mean ED50. Here is the method:
(§1) Compounds were assayed for in vitro cytotoxicity in a panel of human tumor cell lines at the School of Pharmacy, University of North Carolina at Chapel Hill, according to procedures described previously [Lee, K. H., Lin, Y. M., Wu, T. S., Zhang, D. C., Yamagishi, T., Hayashi, T., Hall, I. H., Chang, J. J., Wu, R. Y., Yang, T. H. The cytotoxic principles of Prunella vulgaris, Psychotria serpens, and Hyptis capitata: Ursolic acid and related derivatives. Planta Med. 1988, 54, 308-11; Boyd, M. R. Status of the National Cancer Institute preclinical antitumor drug discovery screen: implications for selection of new agents for clinical trial. Devita, V. T., Jr. Hellman, S., Rosenberg, S. A., Eds, J. B. Cancer: Principles and Practice of Oncology Update, 1989, 3: pp1-12, Lippincoft: Philadephia; Monks, A., Scudiero, D., Skehan, P., Shoemaker, R., Paull, K., Vistica, D., Hose, C., Langley, J., Cronise, P., Vaigro-Wolff, A., Gray-Goodrich, M., Campbell, H., Mayo, J., Boyd, M. Feasibility of a high-flux anticancer drug screen using a diverse panel of cultured human tumor cell lines. J. Natl. Cancer Inst. 1991, 83, 757-66.] […]

For data set [2], the system named is human ovarian cancer (IA9) cell line. Put plainly: Activity against HTCL replication, IA9. The data set is classed as cell-based. Here is the method:
(§2) Compounds were assayed for in vitro cytotoxicity in a panel of human tumor cell lines at the School of Pharmacy, University of North Carolina at Chapel Hill, according to procedures described previously [Lee, K. H., Lin, Y. M., Wu, T. S., Zhang, D. C., Yamagishi, T., Hayashi, T., Hall, I. H., Chang, J. J., Wu, R. Y., Yang, T. H. The cytotoxic principles of Prunella vulgaris, Psychotria serpens, and Hyptis capitata: Ursolic acid and related derivatives. Planta Med. 1988, 54, 308-11; Boyd, M. R. Status of the National Cancer Institute preclinical antitumor drug discovery screen: implications for selection of new agents for clinical trial. Devita, V. T., Jr. Hellman, S., Rosenberg, S. A., Eds, J. B. Cancer: Principles and Practice of Oncology Update, 1989, 3: pp1-12, Lippincoft: Philadephia; Monks, A., Scudiero, D., Skehan, P., Shoemaker, R., Paull, K., Vistica, D., Hose, C., Langley, J., Cronise, P., Vaigro-Wolff, A., Gray-Goodrich, M., Campbell, H., Mayo, J., Boyd, M. Feasibility of a high-flux anticancer drug screen using a diverse panel of cultured human tumor cell lines. J. Natl. Cancer Inst. 1991, 83, 757-66.] The cell lines included human ovarian cancer (1A9), ileocecal carcinoma (HCT-8), lung carcinoma (A-549), glioblastoma (U-87-MG), bone (HOS), epidermoid carcinoma of the […] (KB), P-gp-expressing epidermoid carcinoma of the nasopharynx (KB-VIN), and melanoma (SKMEL-2) cell line. The cytotoxic effects of each compound were obtained as EC50 values, which represent the molar drug concentrations required to cause 50% inhibition.
Antitumor activity of compounds IX-8 and X-8 was further tested on the following 8 cancer cell lines: CAKI, HOS, KB, KB-VIN, SK-MEL-2, U87-MG, HCT-8 and IA9. […] It is worth mentioning that these two compounds were quite active against human ovarian cancer cells (IA9), which were known to have a high level of drug resistant P-glycoprotein. IC50 of compound IX-8 against these cancer cells is only 0.03 μg/mL. Thus, this compound is really worth developing, particular against drug resistant ovarian cancer.

Data set [3] concerns lung cancer cell line (A-549). Put plainly: Preliminary cytotoxicity screening against lung cancer cell line A-549 (SRB assay). The data set is classed as cell-based, human. Particulars: Homo sapiens, A549; A-549; 50% reduction in absorbance at 562 nm relative to untreated cells, SRB assay; Table 1 (esters VII, acids IX); read-out: ED50 (cytotoxicity against A-549). The procedure: as §2
Preliminary screening of antitumor activity was based on the cytotoxicity tested in human long cancer (A-549) cell lines. […] Among 3-carboxylic acid derivatives (IX), the cytotoxicity was not remarkable when the m-position of 2-phenyl group was substituted by OCH3 group (IX-3, 7, 11). ED50 values were greater than 20 μg/mL. […] The antitumor activity was not good, if there was no substitution on the m-position of 2-phenyl group ([…]).
(In general: In SRB staining, fixed cells bind dye roughly in proportion to their protein.)

Data set [4] relates to melanoma (SK-MEL-2) cell line. Put plainly: Activity against HTCL replication, SK-MEL-2. The class given is cell-based, human. Particulars: mean ED50. The procedure: as §1

The melting point is the temperature, or range, at which the solid turns liquid.

Values after ≈ are worked out from the molar mass of the structure shown.

As to `COc1ccc2[nH]c(-c3cccc(F)c3)c(C(=O)O)c(=O)c2c1` [IX-8, 3′-Fluoro-6-methoxy-2-phenyl-4-quinolone-3-carboxylic acid], the melting point is 268 °C (dec.). Moreover, the “ED50 KB” value in data set [1] was 0.13 µg/mL (≈ 0.415 µM). For the same compound, the IC50 in data set [2] (Homo sapiens, IA9, as worded in text, read-out: IC50 against human ovarian cancer cells (IA9)) is 0.03 µg/mL (≈ 0.0958 µM). Also, in data set [2] (ovarian cancer IA9, mean ED50), the “ED50 IA9” value was found to be 0.03 µg/mL (≈ 0.0958 µM). Moreover, the IC50 in data set [3] was determined as 0.19 µg/mL (≈ 0.606 µM). Further, the “ED50 SK-MEL-2” value in data set [4] was determined as 0.16 µg/mL (≈ 0.511 µM).

The record behind these values is patent US6897316B2, “Substituted 2-phenyl-4-quinolone-3-carboxylic acid compounds and their use as antitumor agents” (China Medical University, priority 2003, dated 2005).
